Data from patent US20050136491A1, “Method of site specific labeling of proteins and uses therefor” (SmithKline Beecham Corporation, priority 1999, published 2005).
Square brackets hold non-standard residues; d marks the D form. Peptide text beside a SMILES is read from it. * marks the point of attachment. Tyr(3-NO2) = N[C@@H](Cc1ccc(O)c([N+](=O)[O-])c1)C(=O)O; Biotin = O=C1N[C@H]2[C@H](CS[C@H]2CCCCC(=O)*)N1

Assays:
[1] = target: T1, Factor XIIIa (Homo sapiens, UniProt P00488); assay: Factor XIII(a)-mediated labeling of ACP-Peptide 1 C-terminal fusion (C-tagged ACP); assay type: biochemical; conditions: for incorporation into ACP-Peptide 1 fusion: Mono Q ion exchange, 22 hr
T1 construct: purchased Enzyme Research Laboratories
T1 sequence (P00488 39-732 limits assumed): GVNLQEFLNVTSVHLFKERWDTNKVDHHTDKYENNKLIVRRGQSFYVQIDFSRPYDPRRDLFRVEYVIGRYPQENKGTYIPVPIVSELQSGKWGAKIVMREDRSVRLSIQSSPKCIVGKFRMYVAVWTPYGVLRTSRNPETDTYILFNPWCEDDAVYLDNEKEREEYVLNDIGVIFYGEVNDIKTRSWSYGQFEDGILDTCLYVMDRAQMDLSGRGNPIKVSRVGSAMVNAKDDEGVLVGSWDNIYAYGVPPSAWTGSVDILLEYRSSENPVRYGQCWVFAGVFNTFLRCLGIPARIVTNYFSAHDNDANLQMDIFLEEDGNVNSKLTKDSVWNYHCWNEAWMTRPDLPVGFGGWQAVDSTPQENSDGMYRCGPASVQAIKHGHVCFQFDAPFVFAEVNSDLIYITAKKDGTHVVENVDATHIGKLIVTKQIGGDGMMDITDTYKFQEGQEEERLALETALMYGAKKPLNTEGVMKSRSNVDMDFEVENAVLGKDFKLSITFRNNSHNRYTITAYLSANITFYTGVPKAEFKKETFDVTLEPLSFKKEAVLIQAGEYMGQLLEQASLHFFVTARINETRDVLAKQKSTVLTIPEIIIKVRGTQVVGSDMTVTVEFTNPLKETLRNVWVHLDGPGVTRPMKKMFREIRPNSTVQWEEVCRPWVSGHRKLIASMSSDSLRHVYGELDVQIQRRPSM
Method: A 270 units/ml reaction of Factor XIII was activated by 42 units/ml immobilized thrombin in Buffer 1:40 mM Tris-HCl, pH 8.3, 0.15 M NaCl. Cadaverine derivatives (rhodamine green and biotin) were used at 0.5 mM for each labeling reaction. The labeling reaction also contained 6 mM of DTT and 5 mM CaCl2. 0.5 mg/ml tagged ACP was used in the labeling reactions, against a 0.5 mg/ml native ACP control sample. Incubations were carried out at room temperature. Aliquots were taken from the mixtures at different time points and 50 mM EDTA was used to stop the labeling reaction (Factor XIII being Ca^2+ dependent). NuPAGE Tris-Glycine gels (4-12%) [Novex] were used to analyze the labeling results. The rhodamine green cadaverine labeling gel was observed under UV translumination, while the biotin cadaverine labeled protein was analyzed by Western blotting/streptavidin-HRP detection. […] No label was incorporated into the native ACP control under the conditions described above.
The ACP-peptide 1 C-terminal fusion was labeled with biotin cadaverine (Molecular Probes) in a reaction mixture of 0.5 mg/ml ACP-Peptide 1 fusion, 1.5 mM biotin-cadaverine and 504 units/ml Factor XIIIa. The efficiency of incorporation was determined by competitive ELISA to be 56%.
Novel biotinylation reagents (i.e. labeling compounds) were tested in an attempt to increase the yield. To this end, two biotinylated dipeptides, Biotin-Trp-Lys-OH and Biotin-NitroTyr-Lys-OH, were evaluated in a reaction mixture of 0.5 mg/ml ACP-Peptide 1 fusion, 1.5 mM biotin-cadaverine and 504 units/ml Factor XIIIa. Incorporation of the Biotin-Trp-Lys-OH dipeptide was shown by Mono Q ion exchange to be >85% (FIG. 2), in comparison to a 55% incorporation of the Biotin-NitroTyr-Lys dipeptide (FIG. 1). […] provides the C-tagged ACP standard. The identity of the modified peak was confirmed by addition of unmodified ACP at the end of the reaction (FIG. 4).

[2] = target: T2, Factor XIII (Homo sapiens, UniProt P00488); assay: Factor XIII-mediated labeling of N-terminal Peptide 1-ACP fusion (N-tagged ACP); assay type: biochemical; conditions: analysed by N-terminal sequencing and mass mapping
T2 construct: purchased Enzyme Research Laboratories
T2 sequence (P00488 39-732 limits assumed): T1 sequence (P00488 39-732 limits assumed)

[3] = 0.5 mg/ml fusion, 504 units/ml Factor XIIIa

NCCCC[C@H](NC(=O)[C@H](Cc1c[nH]c2ccccc12)NC(=O)CCCC[C@@H]1SC[C@@H]2NC(=O)N[C@@H]21)C(=O)O [Biotin-Trp-Lys-OH] (Biotin-Trp-Lys-OH)
incorporation into ACP-Peptide 1 fusion [1, 3]: > 85%

rhodamine green cadaverine
efficiency of labeling of the ACP-Peptide 1 C-terminal fusion [1]: greater than 90% | extent of labeling of C-tagged ACP ([1]; non-optimized reaction, estimated by high-resolution ion exchange): greater than 85%

biotin cadaverine
efficiency of incorporation into ACP-Peptide 1 C-terminal fusion ([1]; competitive ELISA, 0.5 mg/ml fusion, 1.5 mM label, 504 units/ml Factor XIIIa): 56%

NCCCC[C@H](NC(=O)[C@H](Cc1ccc(O)c([N+](=O)[O-])c1)NC(=O)CCCC[C@@H]1SC[C@@H]2NC(=O)N[C@@H]21)C(=O)O [Biotin-NitroTyr-Lys, Biotin-NitroTyr-Lys-OH] (Biotin-[Tyr(3-NO2)]-Lys-OH)
incorporation into ACP-Peptide 1 fusion [1, 3]: 55%

CN(C)c1cccc2c(S(=O)(=O)NCCCCCN)cccc12 [dansyl cadaverine]
labeling efficiency of N-terminal Peptide 1-ACP fusion [2]: greater than 90%
